Experimental data reported in patent US20160194299A1 (priority 2013, published 2016).
Values after ≈ are worked out from the molar mass of the structure shown. Like-named read-outs stand apart in the source and are kept apart here.

What was measured:
in vitro = conditions: African green monkey
Mtb [1] = assay: microbe, parasite or virus in culture; assay type: cell-based, Mycobacterium tuberculosis; conditions: Mycobacterium tuberculosis, read-out: MIC (III)
Mtb [2] = assay: microbe, parasite or virus in culture; assay type: cell-based, Mycobacterium tuberculosis; conditions: Mycobacterium tuberculosis, read-out: MIC (I)

Compound | CC50 (in vitro) [µg/mL] | MIC (Mtb [1]) [µg/mL] | MIC (Mtb [2]) [µg/mL]
CC(C)COC(=O)NC(=O)c1ccsc1NC(=O)c1nc2cnccc2s1 [Compound 282] | 25 to 50 (≈ 61.8 to 124 µM) | > 25 | > 3
CC(C)COC(=O)NC(=O)c1ccsc1NC(=O)c1cnc2ccnn2c1 [Compound 283] | 25 to 50 (≈ 64.5 to 129 µM) | > 25 | 1 to 3 (≈ 2.58 to 7.74 µM)
O=C(NC(=O)c1ccsc1NC(=O)c1cnc2ccnn2c1)OCc1ccc(F)cc1 [Compound 284] | 25 to 50 (≈ 56.9 to 114 µM) | > 25 | > 3
O=C(NC(=O)c1ccsc1NC(=O)c1cnc2ccnn2c1)OCc1ccccc1F [Compound 285] | < 25 | > 25 | > 3
O=C(NC(=O)c1ccsc1NC(=O)c1nc2cnccc2s1)OCc1ccccc1F [Compound 287] | 25 to 50 (≈ 54.8 to 110 µM) | 5 to 25 (≈ 11 to 54.8 µM) | 1 to 3 (≈ 2.19 to 6.57 µM)
O=C(NC(=O)c1ccsc1NC(=O)c1nc2cccnc2s1)OCc1ccccc1C(F)(F)F [Compound 288] | < 25 | 5 to 25 (≈ 9.87 to 49.4 µM) | > 3
O=C(NC(=O)c1ccsc1NC(=O)c1cnc2ccnn2c1)OCc1ccccc1C(F)(F)F [Compound 289] | < 25 | > 25 | > 3
CCOC(=O)NC(=O)c1ccsc1NC(=O)c1cn2c(C)cccc2n1 [Compound 290] | > 50 | > 25 | > 3
O=C(Nc1sccc1C(=O)OCCN1CCOCC1)c1nc2ccccc2s1 [Compound 291] | > 50 | > 25 | > 3
CCOC(=O)NC(=O)c1ccsc1NC(=O)c1cn2c(n1)sc1ccccc12 [Compound 292] | > 50 | > 25 | > 3
C=CCOC(=O)NC(=O)c1ccsc1NC(=O)c1nc2ccccc2s1 [Compound 293] | < 25 | < 5 | < 1
O=C(NC(=O)c1ccsc1NC(=O)c1nc2ccccc2s1)OCc1ccccc1C(F)(F)F [Compound 294] | 25 to 50 (≈ 49.5 to 98.9 µM) | > 25 | > 3
O=C(NC(=O)c1ccsc1NC(=O)c1nc2cnccc2s1)OCc1ccccc1C(F)(F)F [Compound 295] | < 25 | 5 to 25 (≈ 9.87 to 49.4 µM) | > 3
CC(C)OC(=O)NC(=O)c1ccsc1NC(=O)c1c(F)c(F)c(F)c(F)c1F [Compound 296] | < 25 | 5 to 25 (≈ 11.8 to 59.2 µM) | > 3
C=CCOC(=O)NC(=O)c1ccsc1NC(=O)c1cnc2ccnn2c1 [Compound 297] | < 25 | < 5 | < 1
CC(C)OC(=O)NC(=O)c1ccsc1NC(=O)c1cnc2ccnn2c1 [Compound 298] | < 25 | < 5 | < 1
CCOC(=O)NC(=O)c1ccsc1NC(=O)c1cnc2c(-c3ccc(OC)cc3)cnn2c1 [Compound 299] | < 25 | > 25 | < 1
O=C(NC(=O)c1ccsc1NC(=O)c1cnc2ccnn2c1)OCc1ccccc1 [Compound 300] | 25 to 50 (≈ 59.3 to 119 µM) | > 25 | > 3
O=C(NC(=O)c1ccsc1NC(=O)c1nc2cnccc2s1)OCc1cccnc1 [Compound 301] | 25 to 50 (≈ 56.9 to 114 µM) | > 25 | > 3
C#CCOC(=O)NC(=O)c1ccsc1NC(=O)c1nc2ccccc2s1 [Compound 303] | < 25 | > 25 | < 1
CCC(OC(=O)NC(=O)c1ccsc1NC(=O)c1nc2cnccc2s1)c1ccccc1 (stereo not drawn) [Compound 305] | < 25 | > 25 | 1 to 3 (≈ 2.14 to 6.43 µM)
CCC(OC(=O)NC(=O)c1ccsc1NC(=O)c1cnc2ccnn2c1)c1ccccc1 (stereo not drawn) [Compound 306] | < 25 | > 25 | > 3
CCC(OC(=O)NC(=O)c1ccsc1NC(=O)c1nc2ccccc2s1)c1ccccc1 (stereo not drawn) [Compound 307] | < 25 | 5 to 25 (≈ 10.7 to 53.7 µM) | > 3
CCOC(=O)NC(=O)c1cc(CC(=O)O)sc1NC(=O)c1nc2cnccc2s1 [Compound 308] | < 25 | > 25 | > 3
CCOC(=O)NC(=O)c1ccsc1NC(=O)c1cn2c(n1)CCCC2 [Compound 309] | < 25 | 5 to 25 (≈ 13.8 to 69 µM) | 1 to 3 (≈ 2.76 to 8.28 µM)

Compound | CC50 (in vitro) [µg/mL] | MIC (Mtb [1]) [µg/mL] | MIC (Mtb [2]) [µg/mL]
CCOC(=O)NC(=O)c1ccsc1NC(=O)c1cc2ccccn2c1 [Compound 310] | > 50 | > 25 | > 3
CCOC(=O)NC(=O)c1ccsc1NC(=O)c1nc2cnc(N3CCOCC3)cc2s1 [Compound 311] | > 50 | > 25 | < 1
CCOC(=O)NC(=O)c1ccsc1NC(=O)Nc1nc2ccccc2s1 [Compound 312] | 25 to 50 (≈ 64 to 128 µM) | > 25 | > 3
COC(=O)NC(=O)c1ccsc1NC(=O)c1cnc2ccnn2c1 [Compound 313] | 25 to 50 (≈ 72.4 to 145 µM) | > 25 | > 3
COC(=O)NC(=O)c1ccsc1NC(=O)c1nc2cnccc2s1 [Compound 314] | 25 to 50 (≈ 69 to 138 µM) | > 25 | > 3
CCOC(=O)NC(=O)c1ccsc1NC(=O)c1cnc2c(N3CCOCC3)cnn2c1 [Compound 315] | 25 to 50 (≈ 56.2 to 112 µM) | > 25 | < 1
CC(C)OC(=O)NC(=O)c1cc(F)sc1NC(=O)c1cnc2ccnn2c1 [Compound 316] | 25 to 50 (≈ 63.9 to 128 µM) | > 25 | 1 to 3 (≈ 2.56 to 7.67 µM)
CC(C)OC(=O)NC(=O)c1ccsc1NC(=O)c1ccn2nccc2c1 [Compound 317] | < 25 | > 25 | < 1
CCOC(=O)NC(=O)c1cc(F)sc1NC(=O)c1nc2cccnc2s1 [Compound 318] | 25 to 50 (≈ 63.4 to 127 µM) | > 25 | < 1
O=C(NC(=O)c1ccsc1NC(=O)c1nc2ccccc2s1)OCCC(F)(F)F [Compound 319] | < 25 | > 25 | < 1
O=C(NC(=O)c1ccsc1NC(=O)c1nc2cnccc2s1)OCCC(F)(F)F [Compound 320] | > 50 | > 25 | < 1
O=C(NC(=O)c1ccsc1NC(=O)c1nc2ccccc2s1)OC1CCC1 [Compound 321] | > 50 | > 25 | < 1
O=C(NC(=O)c1ccsc1NC(=O)c1cnc2ccnn2c1)OCCC(F)(F)F [Compound 322] | < 25 | > 25 | > 3
CCC(CC)OC(=O)NC(=O)c1ccsc1NC(=O)c1cnc2ccnn2c1 [Compound 327] | < 25 | > 25 | 1 to 3 (≈ 2.49 to 7.47 µM)
CCC(CC)OC(=O)NC(=O)c1ccsc1NC(=O)c1nc2cnccc2s1 [Compound 328] | < 25 | > 25 | < 1
CCOC(=O)NC(=O)c1ccsc1NC(=O)c1cc2ccncc2s1 [Compound 329] | < 25 | > 25 | < 1
CC(C)OC(=O)NC(=O)c1ccsc1NC(=O)c1cc2c(F)cccc2s1 [Compound 330] | < 25 | 5 to 25 (≈ 12.3 to 61.5 µM) | < 1
CCOC(=O)NC(=O)c1ccsc1NC(=O)c1cc2c(F)cccc2s1 [Compound 331] | < 25 | 5 to 25 (≈ 12.7 to 63.7 µM) | < 1
CCOC(=O)NC(=O)c1ccsc1NC(=O)c1cc2cccnc2s1 [Compound 332] | > 50 | > 25 | < 1
CCOC(=O)NC(=O)c1ccsc1NC(=O)c1cc2ccc(Cl)cc2s1 [Compound 333] | 25 to 50 (≈ 61.1 to 122 µM) | 5 to 25 (≈ 12.2 to 61.1 µM) | < 1
CCOC(=O)NC(=O)c1ccsc1NC(=O)c1cc2cnccc2s1 [Compound 334] | > 50 | > 25 | < 1
CCOC(=O)NC(=O)c1ccsc1NC(=O)c1c(C)nc2ccc(C)cn12 [Compound 336] | 25 to 50 (≈ 64.7 to 129 µM) | > 25 | > 3
CCOC(=O)NC(=O)c1cc(F)sc1NC(=O)c1nc2cnccc2s1 [Compound 337] | 25 to 50 (≈ 63.4 to 127 µM) | > 25 | < 1
CCOC(=O)NC(=O)c1cc(F)sc1NC(=O)c1cn2ccccc2n1 [Compound 338] | 25 to 50 (≈ 66.4 to 133 µM) | > 25 | < 1
